According to ChEMBL document CHEMBL1153863, “Evaluation of the local anaesthetic activity of 3-aminobenzo[d]isothiazole derivatives using the rat sciatic nerve model” (2009):

Legend:
Format in all cases: functional
[1] = Local anaesthetic activity in rat sciatic nerve assessed as time required to decrease compound action potential to 50 %
[2] = Local anaesthetic activity in rat sciatic nerve assessed as time required to decrease compound action potential to 100 %
[3] = Local anaesthetic activity in rat sciatic nerve assessed as time required to decrease compound action potential to recover to 50 %
[4] = Local anaesthetic activity in rat sciatic nerve assessed as vitality time
[5] = Local anaesthetic activity in rat sciatic nerve assessed as time required to decrease compound action potential to 50 % relative to Lidocaine; set-up: scale not given: the % may be the effect or the level left
[6] = Local anaesthetic activity in rat sciatic nerve assessed as time required to decrease compound action potential to 100 % relative to Lidocaine; set-up: scale not given: the % may be the effect or the level left
[7] = Local anaesthetic activity in rat sciatic nerve assessed as time required to decrease compound action potential to 100 % at 1.5%
[8] = Local anaesthetic activity in rat sciatic nerve assessed as time required to decrease compound action potential to 50 % at 1.5%
[9] = Local anaesthetic activity in rat sciatic nerve assessed as time required to decrease compound action potential to recover to 50 % at 1.5%
[10] = Local anaesthetic activity in rat sciatic nerve assessed as vitality time at 1.5%
[11] = Local anaesthetic activity in rat sciatic nerve assessed as time required to decrease compound action potential to 50 % at 1.5% relative to Lidocaine; set-up: scale not given: the % may be the effect or the level left
[12] = Local anaesthetic activity in rat sciatic nerve assessed as time required to decrease compound action potential to 100 % at 1.5% relative to Lidocaine; set-up: scale not given: the % may be the effect or the level left

| SMILES | IT50 [1] | IT100 [2] | RT50 [3] | VT50 [4] | Activity [5] | Activity [6] | IT100 [7] | IT50 [8] | RT50 [9] | VT50 [10] | Activity [11] | Activity [12] |
| --- | --- | --- | --- | --- | --- | --- | --- | --- | --- | --- | --- | --- |
| Cc1ccc2snc(NC(=O)C(C)N3CCOCC3)c2c1 (stereo not drawn) | 2.23 min | 20 min | 60 min | 738 min | 140.8% | 70% |  |  |  |  |  |  |
| CCN(CC)CC(=O)Nc1nsc2ccccc12 |  |  |  |  |  |  | 53.9 min | 12 min | 121.5 min | 600 min | 26.2% | 26% |
| Cc1ccc2snc(NC(=O)C(C)NC3CCCCC3)c2c1 (stereo not drawn) | 39 min | 42.5 min |  |  | 8.1% | 32.9% |  |  |  |  |  |  |
| CC(C(=O)Nc1nsc2ccccc12)N1CCCCC1 (stereo not drawn) | 8.9 min | 20.9 min | 58 min | 500 min | 21.7% | 73.7% |  |  |  |  |  |  |
| CCNCC(=O)Nc1nsc2ccccc12 | 5 min | 24.2 min | 76 min | 600 min | 62.8% | 57.9% | 49.9 min | 11.5 min | 135 min | 658 min | 27.3% | 28.1% |
| CC(C(=O)Nc1nsc2ccccc12)N(C)C (stereo not drawn) | 7.4 min | 14 min | 77 min | 690 min | 18.8% | 70% |  |  |  |  |  |  |
| CCNC(C)C(=O)Nc1nsc2ccc(C)cc12 (stereo not drawn) | 4.2 min | 12.9 min | 100 min | 702 min | 74.8% | 108.5% |  |  |  |  |  |  |
| CNCC(=O)Nc1nsc2ccccc12 | 10 min | 34 min | 48 min | 786 min | 31.4% | 41.2% |  |  |  |  |  |  |
| O=C(CN1CCC(c2ccccc2)CC1)Nc1nsc2ccccc12 | 18.5 min |  |  |  | 17% |  |  |  |  |  |  |  |
| CNC(C)C(=O)Nc1nsc2ccccc12 (stereo not drawn) | 12.8 min | 26.7 min | 68 min | 450 min | 24.5% | 121.7% |  |  |  |  |  |  |
| CCCNC(C)C(=O)Nc1nsc2ccccc12 (stereo not drawn) | 5.3 min | 24.1 min | 88.9 min | 750 min | 31.4% | 70% |  |  |  |  |  |  |
| CC(NC1CCCCC1)C(=O)Nc1nsc2ccccc12 (stereo not drawn) | 5.8 min | 25.3 min | 52.3 min |  | 44.9% | 63.6% |  |  |  |  |  |  |
| O=C(CN1CCOCC1)Nc1nsc2ccccc12 | 5.5 min | 10 min | 88 min | 511 min | 57.1% | 140% | 19 min | 8.1 min | 40 min | 666.7 min | 26.2% | 26% |
| CCN(CC)C(C)C(=O)Nc1nsc2ccccc12 (stereo not drawn) | 3.85 min | 14.1 min | 57.7 min | 404.2 min | 49.8% | 84.8% |  |  |  |  |  |  |
| CNC(C)C(=O)Nc1nsc2ccc(C)cc12 (stereo not drawn) | 6.6 min | 20 min | 60 min | 780 min | 47.6% | 70% |  |  |  |  |  |  |
| Cc1ccc2snc(NC(=O)C(C)N3CCCC3)c2c1 (stereo not drawn) | 1.75 min | 17.5 min | 122 min | 498 min | 179% | 80% |  |  |  |  |  |  |
| O=C(CCN1CCCC1)Nc1nsc2ccccc12 | 10 min | 20.4 min | 136.6 min | 870 min | 31.4% | 68.6% |  |  |  |  |  |  |

| SMILES | IT50 [1] | IT100 [2] | RT50 [3] | VT50 [4] | Activity [5] | Activity [6] | IT100 [7] | IT50 [8] | RT50 [9] | VT50 [10] | Activity [11] | Activity [12] |
| --- | --- | --- | --- | --- | --- | --- | --- | --- | --- | --- | --- | --- |
| CCNC(C)C(=O)Nc1nsc2ccccc12 (stereo not drawn) | 4.2 min | 12.9 min | 100 min | 861 min | 74.8% | 108.5% |  |  |  |  |  |  |
| CC(C(=O)Nc1nsc2ccccc12)N1CCOCC1 (stereo not drawn) | 11.8 min | 23 min | 126 min | 350 min | 26.6% | 60.9% |  |  |  |  |  |  |
| CN(C)CC(=O)Nc1nsc2ccccc12 | 10.5 min |  | 100 min | 250 min | 29.9% |  |  |  |  |  |  |  |
| CCCNCC(=O)Nc1nsc2ccccc12 | 10 min | 17.5 min | 200 min | 250 min | 31.4% | 80% |  |  |  |  |  |  |
| CCNCCC(=O)Nc1nsc2ccccc12 | 26.1 min | 79.5 min | 154.8 min | 400.8 min | 12% | 17.6% |  |  |  |  |  |  |
| CC(C)NCC(=O)Nc1nsc2ccccc12 | 12.13 min | 30.2 min | 150 min |  | 25.9% | 46.4% |  |  |  |  |  |  |
| O=C(CCN1CCOCC1)Nc1nsc2ccccc12 | 7 min | 17.9 min | 86 min |  | 44.9% | 78.2% |  |  |  |  |  |  |
| CNCCC(=O)Nc1nsc2ccccc12 | 10.75 min | 20.5 min | 136 min | 839 min | 29.2% | 68.3% |  |  |  |  |  |  |
| CC(C(=O)Nc1nsc2ccccc12)N1CCCC1 (stereo not drawn) | 7.7 min | 11.6 min | 135 min | 600 min | 40.8% | 120.7% |  |  |  |  |  |  |
| CCCNC(C)C(=O)Nc1nsc2ccc(C)cc12 (stereo not drawn) | 7.4 min | 14.8 min |  | 365 min | 23.6% | 65.1% |  |  |  |  |  |  |
| O=C(CN1CCCC1)Nc1nsc2ccccc12 | 5 min | 14 min | 105 min | 610 min | 62.8% | 100% | 28.3 min | 11.9 min | 101.5 min | 705.5 min | 26.4% | 49.5% |
| Cc1ccc2snc(NC(=O)C(C)N(C)C)c2c1 (stereo not drawn) | 11.6 min | 23.75 min | 162 min | 1012 min | 25.7% | 75.7% |  |  |  |  |  |  |
| Cc1ccc2snc(NC(=O)C(C)N3CCCCC3)c2c1 (stereo not drawn) | 11 min | 37 min |  |  | 28.5% | 37.8% |  |  |  |  |  |  |
| CC1CCN(CC(=O)Nc2nsc3ccccc23)CC1 | 25.5 min | 37.45 min | 122 min | 930 min | 12.3% | 37.4% |  |  |  |  |  |  |
| O=C(CN1CCCCC1)Nc1nsc2ccccc12 | 7 min | 16 min | 142.7 min | 500 min | 44.9% | 87.5% | 23.4 min | 8.05 min | 141.2 min | 555.8 min | 39% | 59.8% |
| CCN(CC)CC(=O)Nc1c(C)cccc1C [LIDOCAINE] | 3.14 min | 14 min | 48.75 min | 660 min | 100% | 100% |  |  |  |  |  |  |
